Results reported in article PMC4575908 (Chemistry & biology, 2015).
Several values for one entry are separate records, joined by “and”; a condition that tells them apart may be missing. Equal entries are not always repeated. Where two headings read alike, the source gives them in different places.

Legend:
patients = conditions: cited from earlier work
[1] = test system: CPT-11-induced diarrhea in mice; conditions: CPT-11 50 mg/kg i.p. without inhibitor

**Q.** For `CCc1c2c(nc3ccc(OC(=O)N4CCC(N5CCCCC5)CC4)cc13)-c1cc3c(c(=O)n1C2)COC(=O)[C@]3(O)CC` [CPT-11, Irinotecan], which “patients showing grade 3–4 diarrhea” value (patients; human, in vivo) is on record?
**A.** 31%

**Q.** What about the patients experiencing diarrhea (patients; ref Food and Drug Administration package insert for irinotecan) of the same compound?
**A.** up to 88%

**Q.** What about the “mice with bloody diarrhea” value ([1]; day 8, 50 mg/kg) of the same compound?
**A.** ~ 25% and 25%

**Q.** What about the “mice with bloody diarrhea” value ([1]; day 9, 50 mg/kg) of the same compound?
**A.** ~ 60% and 60%

**Q.** What about the “mice with bloody diarrhea” value ([1]; day 10) of the same compound?
**A.** 100%
